The source of these data is PMC5748833, “Synthesis and Biological Evaluation of Novel Hybrid Molecules Containing Purine, Coumarin and Isoxazoline or Isoxazole Moieties” (The Open Medicinal Chemistry Journal, 2017).

A short description of test [1]: Reducing activity of the stable radical DPPH. The note with it: 100 μM compound, after 20 min. The gist of the method:
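Compounds (100 μM) mixed with equal volume of 100 μM DPPH in absolute ethanol at room temperature; absorbance at 517 nm read after 20 and 60 min against ethanol control. Activity given as RA% (reducing activity); NDGA standard.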
(In general: Loss of DPPH colour is used to gauge radical scavenging.)

A short description of test [2]: Inhibition of linoleic acid lipid peroxidation (AAPH). The conditions noted are these: 100 μM compound, 37°C. The gist of the method:
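Sodium linoleate oxidation in 0.05 M phosphate buffer, pH 7.4, at 37°C, initiated by AAPH, with test compounds added from DMSO stock. Conjugated diene hydroperoxide formation followed at 234 nm, with a DMSO-only control and Trolox as standard.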

Test [3] concerns the target T1, electric eel acetylcholinesterase (eeAChE) (Electrophorus electricus, UniProt O42275).
T1 construct: purchased Sigma
Kind of test: biochemical. In kind it is biochemical. The conditions noted are these: read-out: eeAChE IC50 μΜ. The text has this: 2.2.2.5 Inhibition Study on ChEs in vitro
In vitro inhibition of electric eel acetylcholinesterase (eeAChE; 463 U/mg, Sigma) and equine serum butyrylcholinesterase (esBChE; 13 U/mg, Sigma) was investigated with a 96-well plate procedure based on the classical Ellman’s spectrophotometric test, as already described.

Another test addresses T2, rat monoamine oxidase B (Rattus norvegicus, UniProt P19643).
T2 construct: from tissue
T2 sequence (P19643 1-520): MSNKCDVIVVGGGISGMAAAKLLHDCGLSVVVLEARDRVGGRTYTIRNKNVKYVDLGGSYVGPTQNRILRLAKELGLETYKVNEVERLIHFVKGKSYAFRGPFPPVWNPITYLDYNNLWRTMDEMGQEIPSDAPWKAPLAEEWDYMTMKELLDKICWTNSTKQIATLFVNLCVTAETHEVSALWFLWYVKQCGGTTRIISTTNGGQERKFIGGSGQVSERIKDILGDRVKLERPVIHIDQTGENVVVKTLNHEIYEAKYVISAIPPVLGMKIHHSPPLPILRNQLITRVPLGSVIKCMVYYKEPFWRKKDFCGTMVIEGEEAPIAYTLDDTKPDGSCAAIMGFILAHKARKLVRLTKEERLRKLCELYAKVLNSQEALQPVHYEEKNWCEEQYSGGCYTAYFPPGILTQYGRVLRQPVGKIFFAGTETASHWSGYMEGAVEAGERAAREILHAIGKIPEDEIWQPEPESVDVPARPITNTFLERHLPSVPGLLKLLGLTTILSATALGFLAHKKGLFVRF
Kind of test: Inhibition of MAO-B (spectrofluorimetric method). In kind it is biochemical. The conditions noted are these: for MAO-B (%) @ 10μΜ: 10 μM compound. The text has this:
2.2.2.6 Inhibition Study on MAOs in vitro
Inhibition of rat monoamine oxidase A and B was studied by means of a spectrofluorimetric method as previously detailed.

The IC50 is the concentration needed to halve the response being measured.

T1 sequence (O42275 24-633): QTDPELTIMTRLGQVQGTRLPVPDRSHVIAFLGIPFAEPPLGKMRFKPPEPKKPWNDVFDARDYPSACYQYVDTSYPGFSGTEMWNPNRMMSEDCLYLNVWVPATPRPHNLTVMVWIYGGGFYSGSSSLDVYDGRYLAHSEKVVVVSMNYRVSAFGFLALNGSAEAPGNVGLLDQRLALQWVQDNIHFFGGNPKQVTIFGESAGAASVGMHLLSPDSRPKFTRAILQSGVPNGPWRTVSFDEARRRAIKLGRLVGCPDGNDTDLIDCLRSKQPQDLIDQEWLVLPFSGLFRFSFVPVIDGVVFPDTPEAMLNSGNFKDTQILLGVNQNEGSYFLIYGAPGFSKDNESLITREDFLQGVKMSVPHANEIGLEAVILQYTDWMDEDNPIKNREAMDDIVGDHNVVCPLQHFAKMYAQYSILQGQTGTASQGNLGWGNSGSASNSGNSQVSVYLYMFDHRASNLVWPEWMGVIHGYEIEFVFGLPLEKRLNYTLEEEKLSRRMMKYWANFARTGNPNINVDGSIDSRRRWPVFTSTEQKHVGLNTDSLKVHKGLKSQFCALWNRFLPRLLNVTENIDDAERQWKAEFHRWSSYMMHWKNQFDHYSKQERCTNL

`O=c1cc(OCC2CC(Cn3cnc4c(N5CCCCC5)ncnc43)=NO2)c2ccccc2o1` (stereo not drawn) [4f]: in test [1], the “RA% @ 100μΜ (reducing activity, DPPH)” value is 3%. Besides, the “LP % @ 100μΜ (inhibition of lipid peroxidation)” value in test [2] is 62%. Also, the IC50 in test [3] turned out to be 1.4 µM. In addition, on rat monoamine oxidase B, the “MAO-B (%) @ 10μΜ” value is “no”.

On to `Cc1cc(=O)oc2ccc(OCC3=NOC(Cn4cnc5c(Cl)ncnc54)C3)cc12` (stereo not drawn) [11b], for which the “RA% @ 100μΜ (reducing activity, DPPH)” value in test [1] came out at 5%. Besides, the “LP % @ 100μΜ (inhibition of lipid peroxidation)” value in test [2] is listed as “no”. In addition, the IC50 in test [3] is 5.9 µM; at rat monoamine oxidase B (read-out: MAO-B IC50 μΜ), 9.5 µM.

Consider `O=c1cc(OCc2cc(Cn3cnc4c(N5CCOCC5)ncnc43)no2)c2ccccc2o1` [13i], for which the “RA% @ 100μΜ (reducing activity, DPPH)” value in test [1] was “no”. Besides, the “LP % @ 100μΜ (inhibition of lipid peroxidation)” value in test [2] is 74%. Further, the IC50 in test [3] is 5 µM. Further, the “MAO-B (%) @ 10μΜ” value at rat monoamine oxidase B is 9%.
